Values joined by “and” are separate entries in the source; they are usually repeats but may differ in a detail not shown here. Equal entries are not always repeated.
How the values were obtained:
[1] = test system: SH-SY5Y cells; test: Effect on Aβ25-35 peptide-induced cell death (MTT assay); format: cell-based; settings: Homo sapiens, read-out: increase in cell viability
Experimental: Lyophilized synthetic Aβ25-35 peptide was dissolved in sterile water at a concentration of 2 mM, aliquoted and kept at -80°C until use. Aliquots were diluted in culture medium to achieve a final concentration of 30 µM and incubated for 72h at 37°C to form aggregated amyloid. SH-SY5Y cells were seeded in 96-well culture plates at a density of 12 × 10^4 cells per well in DMEM/F12 (1 :1) medium supplemented with 10% fetal bovine serum, 1X non-essential amino acids, 100 units/ml penicillin and 10 mg/ml streptomycin (Dutscher, France). Cultures were kept under a CO2/air (5%/95%) humidified atmosphere at 37°C. After 24h of incubation, the cultures were treated with 100 µl of the compound BIGI-3h or DMSO (0.1%) in DMEM/F12 (1:1) medium supplemented with 1% fetal bovine serum, 1X non-essential amino acids, 100 units/ml penicillin and 10 mg/ml streptomycin. After 24h of treatment, cells were co-incubated with Aβ25-35 peptide (30 µM) with or without the compound BIGI-3h for an additional period of 24h. MTT assay, a common colorimetric assay for assessing cell metabolic activity, was performed as described below.
The cell viability was assessed by measuring the reduction of MTT (3-(4,5-dimethylthiazol-2-yl)-2,5-diphenyltetrazolium bromide) to a formazan product. […] The absorbance at 570 nm and 630 nm (background) was measured using a microplate reader.

[2] = biological target: Tau(306-336) peptide (Homo sapiens, UniProt P10636); settings: Tau(306-336) 50 µM, inhibitor 50 µM (1:1 ratio); mean ± SEM; 50 µM
Sequence of Tau(306-336) peptide (P10636 623-653 limits assumed): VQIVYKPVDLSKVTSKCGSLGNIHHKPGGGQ
Experimental: Subsequently, the sample was aliquoted dried and stored at -20 °C.
Fluorescence data were recorded every 10 min overnight with 1 min shaking at 800 rpm prior to each reading. Each inhibitor was assayed in triplicates in at least two independent experiments. […] Inhibition % are expressed as the mean ± SEM. […] Values were averaged and the presented values are expressed as the mean ± SEM.
Fluorescence data were recorded every 10 min overnight with 1 min shaking at 800 rpm prior to each reading.

[3] = test system: mice; test: Object Recognition task (ORT), scopolamine-induced memory impairment; format: in vivo
Experimental: For behavioural studies, 50 swiss female 10-week-old weighing 25-30 g were used. Memory impairment was induced by the potent antimuscarinic drug scopolamine hydrobromide (0.5 mg/kg, Sigma) dissolved in saline buffer. To explore the potential of BIGI-3h as a cognitive enhancer, the compound was administered at a dose of 1 mg/kg and 10 mg/kg. For comparison, the antiamnesic effect of donepezil was tested (Tocris Bioscience, R&D Systems Inc.) at a dose of 1 mg/kg. Both products, 3h and donepezil, were dissolved in saline buffer containing 3.6% dimethyl sulfoxide. All drug solutions were independently prepared immediately before their use and were administered intraperitoneally in 10 mL/kg of vehicle volume. Different batches of mice were used for each experiment. The animals were distributed into 5 experimental groups (I-V): control groups (I) mice administered 3.6% DMSO in saline buffer, labelled as "control vehicle"; experimental groups (II-V) consisted of (II) mice administered scopolamine dissolved in 3.6% DMSO in saline buffer, labelled as "scop/DMSO," (III) mice co-administered scopolamine plus Donepezil, labelled as "Scopo/donep," (IV) and (V) mice co-administrated scopolamine plus BIGI-3h at 1mg/Kg and 10mg/Kg labelled respectively "Scopo/3h 1" "Scopo/3h 10".
Spontaneous object recognition was tested as described previously, 28 with slight modifications. All behavioural experiments took place during the light phase of the 12-h light/ dark cycle between 10 am and 3 pm to minimize the influence of circadian rhythm, and they were conducted with the investigators blind to treatments. […] The total time spent in active exploration of each object during T1 and T2 was determined with a computerized tracking system and image analyzer (Ethovision XT, Noldus Information Technology) that tracked the nose, centre and tail points of each mouse^45. As a criterion of active object exploration, it was measured the time spent by the animal directing its nose to the object at a distance of less than 2 cm and/or touching it with the vibrissae or nose. […]

`CCOC(=O)C1=C(C)N(CCC2CCN(Cc3ccccc3)CC2)C(=O)NC1c1coc2c(Cl)cc(Cl)cc2c1=O` (racemic) [BIGI-3h, ethyl 1-(2-(1-benzylpiperidin-4-yl)ethyl)-4-(6,8-dichloro-4-oxo-4H-chromen-3-yl)-6-methyl-2-oxo-1,2,3,4-tetrahydropyrimidine-5-carboxylate] was tested, and the viability at 10 µM [1] was 40.4%, the viability at 20 µM [1] was 61.4% and the “Inhibition of T (306-336) peptide self - aggregation (%)” value [2] was 73.7% and 73.7 ± 5.4%. For the same compound, the “recognition index / discrimination index (Figure 5)” value ([3]; 1 mg/kg intraperitoneally with scopolamine 0.5 mg/kg) was “reversed the short-term memory impairment induced by scopolamine” and the “recognition index / discrimination index (Figure 5)” value ([3]; 10 mg/kg intraperitoneally with scopolamine 0.5 mg/kg, **p < 0.01 vs scopo/DMSO) was “significantly improved discrimination index”.
